Source: patent US4530930A, “Antimicrobial 1-ethyl-6,8-difluoro-1,4-dihydro-7-(1-imidazolyl)-4-oxoquinoline-3-carbo xylic acid derivatives” (Kanebo, Ltd., priority 1982, dated 1985)
Values after ≈ are worked out from the molar mass of the structure shown. “Also recorded” adds a separate entry of the source. Read-outs that look alike come from different tables or passages of the source.

How the values were obtained:
[1] = test system: Bacillus subtilis ATCC 6633; experiment: MIC; type: cell-based; details: ATCC6633, gram positive
Description: (§1) In accordance with the method as disclosed in Chemotherapy, Vol. 29, pages 76-79 (1981), MIC (μg/ml) of each test compound was measured.

[2] = test system: Escherichia coli NIHJ JC-2; experiment: MIC; type: cell-based; details: NIHJJC2, gram negative
Description: as §1

[3] = test system: Klebsiella pneumoniae PCI-602; experiment: MIC; type: cell-based; details: PCI602, gram negative
Description: as §1

Proteus Vulgaris HX-19 = experiment: MIC; type: cell-based; details: gram negative
Description: as §1

[4] = test system: Pseudomonas aeruginosa IFO 3445; experiment: MIC; type: cell-based
Description: as §1

[5] = test system: Salmonella paratyphi 1015; experiment: MIC; type: cell-based; details: Salmonella enterica
Description: as §1

[6] = test system: Serratia marcescens IAM 1184; experiment: MIC; type: cell-based; details: IAM1184, gram negative
Description: as §1

[7] = test system: Staphylococcus aureus FDA 209P JC-1; experiment: MIC; type: cell-based; details: FDA209P, gram positive
Description: as §1

[8] = test system: Staphylococcus epidermidis; experiment: MIC; type: cell-based; details: gram positive
Description: as §1

Microorganisms = experiment: In vitro anti-microbial activity (MIC), overall; type: cell-based; details: Experiment 1
Description: as §1

[9] = Bioavailability in oral administration in mice; type: in vivo, ddY-strain male mice; details: for concentration at 0.5 h / concentration at 1 h / concentration at 2 h / concentration at 4 h / AUC at 4 h: mouse
Description: Each of the test compounds was suspended in a 0.5% sodium carboxymethylcellulose to prepare a suspension having a concentration of 5 mg/ml of the compound.
ddY-strain male mice (5 week old, weighing 22 to 25 g, three per group) were used. The suspension was orally administered to mice fasted for 16 hours. The dose of the test compound was adjusted to 50 mg/kg of body weight of animal. 30, 60, 120, and 240 minutes after the administration of the test compound, blood was taken out from each mouse, and the blood sample thus obtained was centrifuged at 3,000 rpm for 20 minutes to obtain a serum sample.

[10] = Bioavailability in oral administration in rats; type: in vivo, Wistar-strain male rats; design: AUC at 4 h: concentration or dose not given beside the values; details: rat
Description: Each of the test compounds was suspended in a 0.5% sodium carboxymethylcellulose to prepare a suspension having a concentration of 5 mg/ml of the test compound.
Wistar-strain male rats (weighing 160 g ±20 g, three per group) were used. The suspension was orally administered to rats fasted 16 hours. 30, 60, 120, and 240 minutes after the administration of the test compound, blood was taken out from the rats. The blood was centrifuged at 3,000 rpm for 20 minutes to obtain a plasma sample. In the same manner as described in Experiment 2, the concentration (μg/ml) of test compound in plasma and also AUC (μg.hr/ml) were measured.

in vivo [11] = details: mouse, in vivo, po
Description: (§2) The acute toxicities in oral administration and intravenous injection of the test compounds were tested as follows:
(§3) In oral administration: To ddY-strain male mice (weighing 20-25 g, five per group) was administered orally a suspension of each test compound in a 0.5% sodium carboxymethylcellulose. […] J. Biometric Soc., 8, 249 (1959)].

in vivo [12] = type: in vivo; details: mouse, in vivo, iv
Description: as §2
(§4) In intravenous administration: Each of the test compounds was dissolved in 1N aqueous sodium hydroxide solution and thereto was added a phosphoric acid-saline buffer (pH 7.2) to prepare a test solution. The test solution was intravenously injected to ddy-strain male mice (weighing 20-25 g, five per group). One week after the administration of the test solution, the LD50 was determined in accordance with Weil method.

ddY-strain male mice [13] = experiment: in vivo; type: in vivo; details: 10080 min
Description: as §2, §4

ddY-strain male mice [14] = details: p.o.; data reported at Nippon Kagakuryohogakkai 28th Meeting (1980, Tokyo); 10080 min; cited from earlier work
ddY-strain male mice [15] = details: i.v.; data reported at Nippon Kagakuryohogakkai 28th Meeting (1980, Tokyo); 10080 min; cited from earlier work
ddY-strain male mice [16] = experiment: in vivo; details: mice, p.o., one week, Weil method; 10080 min
Description: as §2, §3

[17] = IFO3445, gram negative, read-out: MIC
[18] = serum, mice, oral 50 mg/kg, after 30 min., read-out: Concentration in serum
[19] = serum, mice, oral 50 mg/kg, after 60 min., read-out: Concentration in serum
[20] = serum, mice, oral 50 mg/kg, after 120 min., read-out: Concentration in serum
[21] = serum, mice, oral 50 mg/kg, after 240 min., read-out: Concentration in serum
[22] = mice, oral 50 mg/kg, serum, 1-4 hrs., read-out: AUC
[23] = plasma, rats, oral, after 30 min., read-out: Concentration in plasma
[24] = plasma, rats, oral, after 60 min., read-out: Concentration in plasma
[25] = plasma, rats, oral, after 120 min., read-out: Concentration in plasma
[26] = plasma, rats, oral, after 240 min., read-out: Concentration in plasma
[27] = rats, oral, plasma, 1-4 hrs., read-out: AUC
[28] = mice, i.v., one week, Weil method

Structure (SMILES)	MIC [1] [µg/mL]	MIC [2] [µg/mL]	MIC [3] [µg/mL]	MIC (Proteus Vulgaris HX-19) [µg/mL]	MIC [4, 17] [µg/mL]	MIC [5] [µg/mL]	MIC [6] [µg/mL]	MIC [7] [µg/mL]	MIC [8] [µg/mL]	concentration at 0.5 h [9, 18] [ng/mL]	concentration at 1 h [9, 19] [ng/mL]	concentration at 2 h [9, 20] [ng/mL]	concentration at 4 h [9, 21] [ng/mL]	AUC at 4 h [9, 22] [ng·h/mL]	concentration at 0.5 h [10, 23] [ng/mL]	concentration at 1 h [10, 24] [ng/mL]	concentration at 2 h [10, 25] [ng/mL]	concentration at 4 h [10, 26] [ng/mL]	AUC at 4 h [10, 27] [ng·h/mL]	further results
CCn1cc(C(=O)O)c(=O)c2cnc(-n3ccnc3)cc21 [E, 1-ethyl-1,4-dihydro-7-(1-imidazolyl)-4-oxo-1,6-naphthylidine-3-carboxylic acid]	100 (≈ 352 µM)	> 100	25 (≈ 87.9 µM)	3.12 (≈ 11 µM)	> 100	12.5 (≈ 44 µM)	100 (≈ 352 µM)	> 100	> 100											anti-microbial activities in vitro (MIC), in words (Microorganisms): less antimicrobial activities; also recorded: far less activities
CCn1cc(C(=O)O)c(=O)c2cc(F)c(N3CCN(C)CC3)c(F)c21 [D, 1-ethyl-6,8-difluoro-1,4-dihydro-7-[1-(4-methylpiperazinyl)]-4-oxoquinoline-3-carboxylic acid]	0.2 (≈ 0.569 µM)	0.2 (≈ 0.569 µM)	0.1 (≈ 0.285 µM)	0.05 (≈ 0.142 µM)	1.56 (≈ 4.44 µM)	0.1 (≈ 0.285 µM)	0.78 (≈ 2.22 µM)	0.78 (≈ 2.22 µM)	1.56 (≈ 4.44 µM)	14400 ± 800	11500 ± 900	6700 ± 600	3400 ± 400	29300	22600 ± 4500	24000 ± 2300	14600 ± 1100	9300 ± 100	60400	LD50 at 168 h (in vivo [11]): 536 mg/kg; LD50 at 168 h (in vivo [12]): 196 mg/kg
CCn1cc(C(=O)O)c(=O)c2cc(F)c(-n3ccnc3)c(F)c21 [I-a, 1-Ethyl-6,8-difluoro-1,4-dihydro-7-(1-imidazolyl)-4-oxoquinoline-3-carboxylic acid]	0.1 (≈ 0.313 µM)	0.2 (≈ 0.626 µM)	0.05 (≈ 0.157 µM)	0.025 (≈ 0.0783 µM)	6.25 (≈ 19.6 µM)	0.05 (≈ 0.157 µM)	1.56 (≈ 4.89 µM)	0.39 (≈ 1.22 µM)	3.13 (≈ 9.8 µM)	44800 ± 8900	39300 ± 5200	7600 ± 1700	1700 ± 500	64900	54900 ± 3900	70800 ± 3100	48000 ± 4300	31300 ± 3600	184000	LD50 at 168 h (in vivo [11]; mice, one week, Weil method): > 4000 mg/kg; LD50 (ddY-strain male mice [13]; [28]): 773 mg/kg
CCn1cc(C(=O)O)c(=O)c2cc(F)c(N3CCNCC3)cc21 [Compound A, 1-ethyl-1,4-dihydro-6-fluoro-4-oxo-7-(1-piperazinyl)quinoline-3-carboxylicacid]	0.39 (≈ 1.22 µM)	0.39 (≈ 1.22 µM)	0.1 (≈ 0.313 µM)	0.1 (≈ 0.313 µM)		0.1 (≈ 0.313 µM)	0.39 (≈ 1.22 µM)	0.39 (≈ 1.22 µM)	3.13 (≈ 9.8 µM)	1050 ± 240	690 ± 70	400 ± 50	360 ± 30	2000	1810 ± 140	1190 ± 20	630 ± 110	250 ± 10	2990	MIC ([4]; IFO3445): 1.56 µg/mL (≈ 4.89 µM); LD50 (ddY-strain male mice [14]): > 4,000 mg/kg; LD50 (ddY-strain male mice [15]): 220 mg/kg
CCn1cc(C(=O)O)c(=O)c2cc(F)c(-n3cnc(C)c3)c(F)c21 [I-b, 1-Ethyl-6,8-difluoro-1,4-dihydro-7-[1-(4-methylimidazolyl)]-4-oxoquinoline-3-carboxylic acid]	0.05 (≈ 0.15 µM)	0.39 (≈ 1.17 µM)	0.1 (≈ 0.3 µM)	0.025 (≈ 0.075 µM)	6.25 (≈ 18.8 µM)	0.1 (≈ 0.3 µM)	3.13 (≈ 9.39 µM)	0.78 (≈ 2.34 µM)	3.13 (≈ 9.39 µM)	49200 ± 2500	29400 ± 2500	10000 ± 800	6300 ± 1100	67900	58700 ± 5300	62900 ± 6000	52000 ± 4000	33500 ± 4900	188000	LD50 at 168 h (in vivo [11]): > 4000 mg/kg; LD50 (ddY-strain male mice [13]; mouse, in vivo, iv): 593 mg/kg
CCn1cc(C(=O)O)c(=O)c2cc(F)c(N3CCN(C)CC3)cc21 [B, 1-ethyl-1,4-dihydro-6-fluoro-7-[1-(4-methylpiperazinyl)]-4-oxoquinoline-3carboxylic acid]	0.2 (≈ 0.6 µM)	0.39 (≈ 1.17 µM)	0.1 (≈ 0.3 µM)	0.1 (≈ 0.3 µM)	1.56 (≈ 4.68 µM)	0.1 (≈ 0.3 µM)		0.39 (≈ 1.17 µM)	0.78 (≈ 2.34 µM)											
CC1COc2c(-n3ccnc3)c(F)cc3c(=O)c(C(=O)O)cn1c23 (stereo not drawn) [F, 2,3-dihydro-9-fluoro-10-(1-imidazolyl)-3-methyl-7-oxo-7H-pyrido[1,2,3-de][1,4]benzoxazine-6-carboxylic acid]	0.1 (≈ 0.304 µM)	0.39 (≈ 1.18 µM)	0.05 (≈ 0.152 µM)	0.025 (≈ 0.0759 µM)	3.12 (≈ 9.48 µM)	0.05 (≈ 0.152 µM)	3.12 (≈ 9.48 µM)	0.19 (≈ 0.577 µM)	1.56 (≈ 4.74 µM)	6400 ± 1800	2600 ± 1000	1200 ± 300	600 ± 200	7500						bioavailability when administered orally, in words ([9]; mice, oral, Experiment 2): inferior to the compounds of the present invention in the bioavailability
CCn1cc(C(=O)O)c(=O)c2cc(F)c(N3CCNCC3)c(F)c21 [C, 1-ethyl-6,8-difluoro-1,4-dihydro-4-oxo-7-(1-piperazinyl)quinoline-3-carboxylic acid]	0.39 (≈ 1.16 µM)	0.2 (≈ 0.593 µM)	0.1 (≈ 0.296 µM)	0.1 (≈ 0.296 µM)	0.78 (≈ 2.31 µM)	0.1 (≈ 0.296 µM)	0.78 (≈ 2.31 µM)	0.39 (≈ 1.16 µM)	3.13 (≈ 9.28 µM)											AUC at 4 h ([9]; in vivo, po, 50 mg/kg): 12400 ng·h/mL; concentration at 0.5 h ([9]; in vivo, po, 50 mg/kg): 6260 ± 1570 ng/mL; concentration at 1 h ([9]; in vivo, po, 50 mg/kg): 3510 ± 1290 ng/mL; concentration at 2 h ([9]; in vivo, po, 50 mg/kg): 3410 ± 670 ng/mL; concentration at 4 h ([9]; in vivo, po, 50 mg/kg): 1530 ± 270 ng/mL; AUC at 4 h ([10]; in vivo, po): 26000 ng·h/mL; concentration at 0.5 h ([10]; in vivo, po): 11700 ± 1100 ng/mL; concentration at 1 h ([10]; in vivo, po): 12300 ± 800 ng/mL; concentration at 2 h ([10]; in vivo, po): 6400 ± 300 ng/mL; concentration at 4 h ([10]; in vivo, po): 2000 ± 1800 ng/mL; LD50 (ddY-strain male mice [16]): 1,072 mg/kg; LD50 (ddY-strain male mice [13]; [28]): 193 mg/kg
